Measurements from patent US11149031B2, “Substituted N-(3-fluoropropyl)-pyrrolidine compounds, processes for their preparation and therapeutic uses thereof” (SANOFI, priority 2016, dated 2021).
Like-named read-outs stand apart in the source and are kept apart here.

Assays:
[1] = molecular target: His6-ERα298-554 WT (ERα ligand-binding domain) (Homo sapiens (Human), UniProt P03372); test: Test A: biochemical antagonist activity, LanthaScreen TR-FRET ERα coactivator assay, WT; conditions: read-out: Antagonism WT IC50
In short: (§1)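 His6-ERα LBD (aa 298–554), 0.5 nM, with Tb-anti-His6 antibody, 250 nM PGC1a peptide and 3 nM (or 10 nM) estradiol in pH 7.4 potassium phosphate/DTT buffer; incubated with compound overnight at room temperature. IC50 from 4-parameter logistic fit of TR-FRET 520:495 nm ratio.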

[2] = molecular target: His6-ERα298-554 D538G mutant (ERα ligand-binding domain) (Homo sapiens (Human), UniProt P03372, D538G); test: Test A: biochemical antagonist activity, LanthaScreen TR-FRET ERα coactivator assay, D538G mutant; conditions: read-out: Antagonism D538G IC50
In short: as §1

[3] = molecular target: His6-ERα298-554 Y537S mutant (ERα ligand-binding domain) (Homo sapiens (Human), UniProt P03372, Y537S); test: Test A: biochemical antagonist activity, LanthaScreen TR-FRET ERα coactivator assay, Y537S mutant; conditions: read-out: Antagonism Y537S IC50
In short: as §1

[4] = test system: MCF7 cells (breast tumor cells) WT; test: Test B: cell proliferation/viability assay (CellTiter-Glo) on MCF7 WT; assay type: cell-based; conditions: Homo sapiens, MCF7, 168 h, 7 days of compound exposure
In short: (§2)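 MCF7 WT / ER mutant lines (estradiol-independent, Tyr537Ser or Asp538Gly); stripped-serum, phenol red-free MEM; 9 pt 1:5 dil, 3-0.000001 μM final; 7 d; CellTiter-Glo RLU → % viability vs untreated, background-subtracted.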

[5] = test system: MCF7 cells expressing mutant estrogen receptor Tyr 537 Ser; test: Test B: cell proliferation/viability assay (CellTiter-Glo) on MCF7 Tyr 537 Ser mutant; assay type: cell-based; conditions: Homo sapiens, MCF7, 168 h, MCF7 cells expressing ER Tyr 537 Ser mutant, 7 days of compound exposure, read-out: proliferation MCF7 Y537S IC50
In short: as §2

[6] = test system: MCF7 cells expressing mutant estrogen receptor Asp 538 Gly; test: Test B: cell proliferation/viability assay (CellTiter-Glo) on MCF7 Asp 538 Gly mutant; assay type: cell-based; conditions: Homo sapiens, MCF7, 168 h, MCF7 cells expressing ER Asp 538 Gly mutant, 7 days of compound exposure, read-out: proliferation MCF7 D538G IC50
In short: as §2

ERα in MCF7 cells = ERα in MCF7 cells (Homo sapiens (Human), UniProt P03372); test: Test C: estrogen receptor degradation activity, ERα in cell western assay in MCF7 cells; assay type: cell-based; conditions: for DC50: 4 hours post compound addition, ERα in cell western, read-out: Degradation IC50; for % Degradation at 3 μM: 4 hours, relative to fulvestrant
In short: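 Cells seeded in stripped-serum medium are dosed the next day across a nine-concentration series (3 down to 0.000018 μM). Four hours later they are fixed, blocked, probed overnight with anti-ERα antibody, then labelled with an Alexa 488 secondary and a DNA dye before plate scanning.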

[7] = asterisk (*): protocol using 10 nM estradiol

His6-ERα298-554 D538G mutant (ERα ligand-binding domain), sequence (P03372 298-554 D538G): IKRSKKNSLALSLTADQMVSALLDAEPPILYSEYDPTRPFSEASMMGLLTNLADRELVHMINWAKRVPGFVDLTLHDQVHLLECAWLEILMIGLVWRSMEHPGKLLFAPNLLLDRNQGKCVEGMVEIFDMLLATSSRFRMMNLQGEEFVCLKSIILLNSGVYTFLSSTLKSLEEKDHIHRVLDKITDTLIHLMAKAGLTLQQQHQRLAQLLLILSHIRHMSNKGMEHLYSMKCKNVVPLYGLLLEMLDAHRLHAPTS
His6-ERα298-554 WT (ERα ligand-binding domain), sequence (P03372 298-554): as the sequence (P03372 298-554 D538G) above, with G241D counted along it
His6-ERα298-554 Y537S mutant (ERα ligand-binding domain), sequence (P03372 298-554 Y537S): as the sequence (P03372 298-554 D538G) above, with Y240S, G241D counted along it
ERα in MCF7 cells, sequence (P03372 whole entry): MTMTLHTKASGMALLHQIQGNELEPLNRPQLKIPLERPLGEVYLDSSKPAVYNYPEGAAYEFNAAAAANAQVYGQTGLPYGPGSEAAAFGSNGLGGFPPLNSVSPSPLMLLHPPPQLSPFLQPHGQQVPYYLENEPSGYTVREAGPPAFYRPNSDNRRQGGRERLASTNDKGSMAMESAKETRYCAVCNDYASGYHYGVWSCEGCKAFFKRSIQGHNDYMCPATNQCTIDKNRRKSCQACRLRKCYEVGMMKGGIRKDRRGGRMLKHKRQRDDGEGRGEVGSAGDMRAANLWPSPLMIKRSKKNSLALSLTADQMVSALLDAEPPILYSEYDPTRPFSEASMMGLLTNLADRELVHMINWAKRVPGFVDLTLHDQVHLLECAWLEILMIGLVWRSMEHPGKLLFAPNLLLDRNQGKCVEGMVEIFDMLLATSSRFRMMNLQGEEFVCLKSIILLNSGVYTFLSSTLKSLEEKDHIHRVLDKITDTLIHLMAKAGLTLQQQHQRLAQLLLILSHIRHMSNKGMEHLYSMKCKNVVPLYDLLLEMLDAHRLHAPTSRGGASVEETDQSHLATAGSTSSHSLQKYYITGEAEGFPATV

Row | SMILES | IC50 [1, 7] [nM] | IC50 [2, 7] [nM] | IC50 [3, 7] [nM] | IC50 [4] [nM] | IC50 [5] [nM] | IC50 [6] [nM] | DC50 (ERα in MCF7 cells) [nM] | % Degradation at 3 μM (ERα in MCF7 cells) [%] | IC50 ([1]; protocol with 3 nM estradiol) [nM] | IC50 ([2]; protocol with 3 nM estradiol) [nM] | IC50 ([3]; protocol with 3 nM estradiol) [nM]
1 | CC(C)(C)c1ccc(C2=C(c3ccc(O[C@H]4CCN(CCCF)C4)cc3)c3ccc(O)cc3SCC2)cc1 [Example 216, 4-(4-tert-butylphenyl)-5-[4-[(3S)-1-(3-fluoropropyl)pyrrolidin-3-yl]oxyphenyl]-2,3-dihydro-1-benzothiepin-8-ol] | 33 | 662 | 543 | 0.6 | 13 | 1 | 0.2 | 88 | – | – | –
2 | Cc1ccc(C2=C(c3ccc(O[C@H]4CCN(CCCF)C4)nc3)c3ccc(O)cc3SC2)c(F)c1 [Example 78, 3-(2-fluoro-4-methyl-phenyl)-4-[6-[(3S)-1-(3-fluoropropyl)pyrrolidin-3-yl]oxy-3-pyridyl]-2H-thiochromen-7-ol] | 1 | 29 | 15 | 0.3 | 4 | 0.9 | 0.2 | 88 | – | – | –
3 | Oc1ccc2c(c1)SCC(c1ccc(OCF)cc1)=C2c1ccc(O[C@H]2CCN(CCCF)C2)cc1 [Example 60, 3-[4-(fluoromethoxy)phenyl]-4-[4-[(3S)-1-(3-fluoropropyl)pyrrolidin-3-yl]oxyphenyl]-2H-thiochromen-7-ol] | 9 | 215 | 103 | 0.5 | 3 | 0.4 | 0.2 | 73 | – | – | –
4 | CC1(C)Cc2cc(C3=C(c4ccc(O[C@H]5CCN(CCCF)C5)cc4)c4ccc(O)cc4SC3)ccc2N1 [Example 29, 3-(2,2-dimethylindolin-5-yl)-4-[4-[(3S)-1-(3-fluoropropyl)pyrrolidin-3-yl]oxyphenyl]-2H-thiochromen-7-ol] | 14 | 240 | 130 | 0.4 | 6 | 0.9 | 0.2 | 92 | – | – | –
5 | Cc1ccc(C2=C(c3cnc(O[C@H]4CCN(CCCF)C4)nc3)c3ccc(O)cc3CCC2)c(F)c1 [Example 244, 6-(2-fluoro-4-methyl-phenyl)-5-[2-[(3S)-1-(3-fluoropropyl)pyrrolidin-3-yl]oxypyrimidin-5-yl]-8,9-dihydro-7H-benzo[7]annulen-2-ol] | 3 | 67 | 34 | 0.9 | 6 | 2 | 0.4 | 92 | – | – | –
6 | Cc1ccc(C2=C(c3ccc(O[C@H]4CCN(CCCF)C4)cc3)c3ccc(O)cc3SC2)c(F)c1F [Example 64, 3-(2,3-difluoro-4-methyl-phenyl)-4-[4-[(3S)-1-(3-fluoropropyl)pyrrolidin-3-yl]oxyphenyl]-2H-thiochromen-7-ol] | 24 | 492 | 204 | 1 | 5 | 0.7 | 0.2 | 81 | – | – | –
7 | CCOc1ccc(C2=C(c3ccc(O[C@H]4CCN(CCCF)C4)cc3)c3ccc(O)cc3OCC2)c(Cl)c1 [Example 153, 4-(2-chloro-4-ethoxy-phenyl)-5-[4-[(3S)-1-(3-fluoropropyl)pyrrolidin-3-yl]oxyphenyl]-2,3-dihydro-1-benzoxepin-8-ol] | 6 | 117 | 86 | 0.3 | 3 | 0.7 | 0.2 | 91 | – | – | –
8 | C[C@@H]1Cc2cc(C3=C(c4ccc(O[C@H]5CCN(CCCF)C5)cc4)c4ccc(O)cc4SCC3)ccc2O1 [Example 202, 5-[4-[(3S)-1-(3-fluoropropyl)pyrrolidin-3-yl]oxyphenyl]-4-[(2R)-2-methyl-2,3-dihydrobenzofuran-5-yl]-2,3-dihydro-1-benzothiepin-8-ol] | 1 | 15 | 11 | 0.4 | 6 | 1 | 0.5 | 89 | – | – | –
9 | Oc1ccc2c(c1)OCC(c1ccc(F)cc1Cl)=C2c1ccc(O[C@H]2CCN(CCCF)C2)cc1 [Example 82, 3-(2-chloro-4-fluoro-phenyl)-4-[4-[(3S)-1-(3-fluoropropyl)pyrrolidin-3-yl]oxyphenyl]-2H-chromen-7-ol] | 297 | > 4000 | 2290 | 15 | 18 | 1 | 7 | 86 | – | – | –
10 | O=C(O)c1ccc2c(c1)CCCC(c1ccc(OC(F)F)c(F)c1)=C2c1ccc(O[C@H]2CCN(CCCF)C2)nc1 [Example 248, 6-[4-(difluoromethoxy)-3-fluoro-phenyl]-5-[6-[(3S)-1-(3-fluoropropyl)pyrrolidin-3-yl]oxy-3-pyridyl]-8,9-dihydro-7H-benzo[7]annulene-2-carboxylicacid] | 141 | 3440 | 1920 | 0.7 | 15 | 1 | 0.7 | 95 | – | – | –
11 | CCOc1ccc(C2=C(c3cnc(O[C@H]4CCN(CCCF)C4)nc3)c3ccc(O)cc3CCC2)c(F)c1F [Example 246, 6-(4-ethoxy-2,3-difluoro-phenyl)-5-[2-[(3S)-1-(3-fluoropropyl)pyrrolidin-3-yl]oxypyrimidin-5-yl]-8,9-dihydro-7H-benzo[7]annulen-2-ol] | 2 | 42 | 26 | 0.4 | 7 | 0.4 | 0.5 | 82 | – | – | –
12 | CC(C)(C)OC(=O)N1CCOc2ccc(C3=C(c4ccc(O[C@H]5CCN(CCCF)C5)cc4)c4ccc(O)cc4SC3)cc21 [Example 59, tert-butyl 6-[4-[4-[(3S)-1-(3-fluoropropyl)pyrrolidin-3-yl]oxyphenyl]-7-hydroxy-2H-thiochromen-3-yl]-2,3-dihydro-1,4-benzoxazine-4-carboxylate] | 879 | > 4000 | > 4000 | 27 | > 999 | > 999 | 0.9 | 81 | – | – | –
13 | Oc1ccc2c(c1F)OCCC(c1ccc3c(c1)CCN3)=C2c1ccc(O[C@H]2CCN(CCCF)C2)cc1 [Example 107, 9-fluoro-5-[4-[(3S)-1-(3-fluoropropyl)pyrrolidin-3-yl]oxyphenyl]-4-indolin-5-yl-2,3-dihydro-1-benzoxepin-8-ol] | – | – | – | 19 | 147 | 33 | 2 | 82 | 19 | 79 | 55
14 | Oc1ccc2c(c1)CCCC(c1ccc(OC(F)(F)F)cc1)=C2c1ccc(N[C@H]2CCN(CCCF)C2)cc1 [Example 87, 5-[4-[[(3S)-1-(3-fluoropropyl)pyrrolidin-3-yl]amino]phenyl]-6-[4-(trifluoromethoxy)phenyl]-8,9-dihydro-7H-benzo[7]annulen-2-ol] | 23 | 568 | 294 | 0.2 | 3 | 1 | 0.4 | 83 | – | – | –
15 | Oc1ccc2c(c1)CCCC(c1ccc(OC(F)F)c(F)c1)=C2c1ccc(O[C@H]2CCN(CCCF)C2)nc1 [Example 241, 6-[4-(difluoromethoxy)-3-fluoro-phenyl]-5-[6-[(3S)-1-(3-fluoropropyl)pyrrolidin-3-yl]oxy-3-pyridyl]-8,9-dihydro-7H-benzo[7]annulen-2-ol] | 1 | 27 | 16 | 0.1 | 2 | 0.2 | 0.2 | 85 | – | – | –
16 | Cc1ccc(C2=C(c3ccc(O[C@H]4CCN(CCCF)C4)cc3)c3ccc(O)c(F)c3OCC2)c(F)c1 [Example 106, 9-fluoro-4-(2-fluoro-4-methyl-phenyl)-5-[4-[(3S)-1-(3-fluoropropyl)pyrrolidin-3-yl]oxyphenyl]-2,3-dihydro-1-benzoxepin-8-ol] | – | – | – | 0.7 | 12 | 3 | 0.5 | 90 | 5 | 31 | 16
